This assay relates to Botrytis cinerea. The assay can be described thus: Activity against gray mold caused by Botrytis cinerea on bell pepper plants, protective application. The following applies: 200 ppm, protective spray, bell pepper "California Wonder", after about 3 days; untreated plants 100% infected. The assay is classed as in vivo. How it is done:
Comparative Experiment 1—Activity Against Gray Mold Caused by Botrytis cinerea, Protective Application Potted bell pepper plants of the cultivar “California Wonder” were sprayed to runoff point with an aqueous suspension having the active compound concentration stated below. The suspension or emulsion had been prepared by dilution with water from a stock solution comprising 5% of active compound, 94% of cyclohexanone and 1% of emulsifier (Tween 20). 2-5 hours after the spray coating had dried on, the plants were dusted with spores of gray mold (Botrytis cinerea). The test plants were then incubated in a humid chamber at temperatures between 20 and 22° C. and at 100% relative atmospheric humidity. After about 3 days, the extent of the pathogen development was determined visually in % infection of the entire leaf area.

With `CC(C)Nc1c(-c2ccccc2F)c(Cl)nc2ncnn12` [compound A], the “infection of the entire leaf area” value is on record as 90%.

The values above are taken from patent publication US20080032889A1, “6-(2-Fluorophenyl)-Triazolopyrimidines, Method For The Production Thereof, Use Thereof For Controlling Harmful Fungi, And Agents Containing The Same” (BASF AKTIENGESELLSCHAFT, priority 2004, published 2008).
